US20200054633A1 (priority 2017, published 2020)
“Also recorded” adds a separate entry of the source. Like-named read-outs stand apart in the source and are kept apart here.

Conditions: for subjects with nausea / subjects with treatment-emergent diarrhea: Safety Set
Excerpt: This study followed a randomized, double-blind, placebo-controlled, parallel-group, multicenter design.
Analysis set for safety: Safety Set included all subjects who received at least 1 dose of study drug.

Compound: O=C(O)[C@H]1C2CCC(CC2)[C@@H]1Nc1nc(-c2c[nH]c3ncc(F)cc23)ncc1F [Compound (1), Pimodivir]
- TEAE: Hyperglycaemia (600 mg, OST placebo, N=74): 2 (2.7%) n (%)
- TEAE: Hyperhidrosis (600 mg, OST placebo, N=74): 1 (1.4%) n (%)
- TEAE: Hyperkalaemia (600 mg, OST placebo, N=74): 2 (2.7%) n (%)
- TEAE: Hyperproteinaemia (600 mg, OST placebo, N=74): 0 n (%)
- TEAE: Hypertension (600 mg, OST placebo, N=74): 0 n (%)
- TEAE: Hyperuricaemia (600 mg, OST placebo, N=74): 0 n (%)
- TEAE: Hypokalaemia (600 mg, OST placebo, N=74): 0 n (%)
- TEAE: Hyponatraemia (600 mg, OST placebo, N=74): 0 n (%)
- TEAE: Hypophosphataemia (600 mg, OST placebo, N=74): 0 n (%)
- TEAE: Hypothermia (600 mg, OST placebo, N=74): 0 n (%)
- TEAE: Increased appetite (600 mg, OST placebo, N=74): 1 (1.4%) n (%)
- TEAE: Infections and infestations (600 mg, OST placebo, N=74): 1 (1.4%) n (%)
- TEAE: Injury, poisoning and procedural complications (600 mg, OST placebo, N=74): 1 (1.4%) n (%)
- TEAE: Insomnia (600 mg, OST placebo, N=74): 1 (1.4%) n (%)
- TEAE: Investigations (600 mg, OST placebo, N=74): 10 (13.5%) n (%)
- TEAE: Irritability (600 mg, OST placebo, N=74): 1 (1.4%) n (%)
- TEAE: Labyrinthitis (600 mg, OST placebo, N=74): 0 n (%)
- TEAE: Leukopenia (600 mg, OST placebo, N=74): 1 (1.4%) n (%)
- TEAE: Lymph node pain (600 mg, OST placebo, N=74): 0 n (%)
- TEAE: Lymphadenopathy (600 mg, OST placebo, N=74): 0 n (%)
- TEAE: Lymphopenia (600 mg, OST placebo, N=74): 1 (1.4%) n (%)
- TEAE: Metabolism and nutrition disorders (600 mg, OST placebo, N=74): 5 (6.8%) n (%)
- TEAE: Micturition urgency (600 mg, OST placebo, N=74): 1 (1.4%) n (%)
- TEAE: Middle ear effusion (600 mg, OST placebo, N=74): 0 n (%)
- TEAE: Migraine (600 mg, OST placebo, N=74): 1 (1.4%) n (%)
- TEAE: Muscle spasms (600 mg, OST placebo, N=74): 0 n (%)
- TEAE: Musculoskeletal and connective tissue disorders (600 mg, OST placebo, N=74): 1 (1.4%) n (%)
- TEAE: Musculoskeletal chest pain (600 mg, OST placebo, N=74): 0 n (%)
- TEAE: Myalgia (600 mg, OST placebo, N=74): 0 n (%)
- TEAE: Myocarditis (600 mg, OST placebo, N=74): 0 n (%)
- TEAE: Nasal congestion (600 mg, OST placebo, N=74): 0 n (%)
- TEAE: Nausea (600 mg, OST placebo, N=74): 3 (4.1%) n (%)
- TEAE: Nephropathy (600 mg, OST placebo, N=74): 0 n (%)
- TEAE: Nervous system disorders (600 mg, OST placebo, N=74): 4 (5.4%) n (%)
- TEAE: Neutropenia (600 mg, OST placebo, N=74): 1 (1.4%) n (%)
- TEAE: Neutrophil count decreased (600 mg, OST placebo, N=74): 4 (5.4%) n (%)
- TEAE: Oedema peripheral (600 mg, OST placebo, N=74): 0 n (%)
- TEAE: Oral herpes (600 mg, OST placebo, N=74): 1 (1.4%) n (%)
- TEAE: Otitis media (600 mg, OST placebo, N=74): 0 n (%)
- TEAE: Paraesthesia (600 mg, OST placebo, N=74): 0 n (%)
- TEAE: Percussion test abnormal (600 mg, OST placebo, N=74): 0 n (%)
- TEAE: Petechiae (600 mg, OST placebo, N=74): 0 n (%)
- TEAE: Pharyngitis streptococcal (600 mg, OST placebo, N=74): 0 n (%)
- TEAE: Pneumonia chlamydial (600 mg, OST placebo, N=74): 0 n (%)
- TEAE: Protein urine (600 mg, OST placebo, N=74): 0 n (%)
- TEAE: Protein urine present (600 mg, OST placebo, N=74): 0 n (%)
- TEAE: Proteinuria (600 mg, OST placebo, N=74): 0 n (%)
- TEAE: Pruritus (600 mg, OST placebo, N=74): 0 n (%)
- TEAE: Psychiatric disorders (600 mg, OST placebo, N=74): 3 (4.1%) n (%)
- TEAE: Rash (600 mg, OST placebo, N=74): 0 n (%)
- TEAE: Red blood cells urine (600 mg, OST placebo, N=74): 0 n (%)
- TEAE: Renal and urinary disorders (600 mg, OST placebo, N=74): 1 (1.4%) n (%)
- TEAE: Renal failure (600 mg, OST placebo, N=74): 0 n (%)
- TEAE: Renal failure chronic (600 mg, OST placebo, N=74): 0 n (%)
- TEAE: Renal impairment (600 mg, OST placebo, N=74): 0 n (%)
- TEAE: Respiratory, thoracic and mediastinal disorders (600 mg, OST placebo, N=74): 2 (2.7%) n (%)
- TEAE: Rhonchi (600 mg, OST placebo, N=74): 0 n (%)
- TEAE: Sensation of foreign body (600 mg, OST placebo, N=74): 0 n (%)
- TEAE: Sinus bradycardia (600 mg, OST placebo, N=74): 0 n (%)
- TEAE: Sinus congestion (600 mg, OST placebo, N=74): 0 n (%)
- TEAE: Sinus tachycardia (600 mg, OST placebo, N=74): 0 n (%)
- TEAE: Sinusitis (600 mg, OST placebo, N=74): 0 n (%)
- TEAE: Skin and subcutaneous tissue disorders (600 mg, OST placebo, N=74): 2 (2.7%) n (%)
- TEAE: Sleep disorder (600 mg, OST placebo, N=74): 1 (1.4%) n (%)
- TEAE: Sleep terror (600 mg, OST placebo, N=74): 0 n (%)
- TEAE: Syncope (600 mg, OST placebo, N=74): 0 n (%)
- TEAE: Tachycardia (600 mg, OST placebo, N=74): 0 n (%)
- TEAE: Thrombocytopenia (600 mg, OST placebo, N=74): 0 n (%)
- TEAE: Tinnitus (600 mg, OST placebo, N=74): 0 n (%)
- TEAE: Tongue discolouration (600 mg, OST placebo, N=74): 0 n (%)
- TEAE: Tremor (600 mg, OST placebo, N=74): 0 n (%)
- TEAE: Upper respiratory tract infection (600 mg, OST placebo, N=74): 0 n (%)
- TEAE: Urinary tract infection (600 mg, OST placebo, N=74): 0 n (%)
- TEAE: Urine ketone body present (600 mg, OST placebo, N=74): 0 n (%)
- TEAE: Vascular disorders (600 mg, OST placebo, N=74): 0 n (%)
- TEAE: Vertigo (600 mg, OST placebo, N=74): 0 n (%)
- TEAE: Vomiting (600 mg, OST placebo, N=74): 3 (4.1%) n (%)
- TEAE: Wheezing (600 mg, OST placebo, N=74): 1 (1.4%) n (%)
- TEAE: White blood cell count decreased (600 mg, OST placebo, N=74): 1 (1.4%) n (%)
- Worst grade 1 or 2 TEAE (600 mg, OST placebo, N=74): 34 (45.9%)
- Worst grade 3 TEAE (600 mg, OST placebo, N=74): 5 (6.8%)
- Worst grade 3 or 4 TEAE (600 mg, OST placebo, N=74): 5 (6.8%)
- Worst grade 4 TEAE (600 mg, OST placebo, N=74): 0
- subjects with nausea (Compound (1) 300 mg bid): 4.1%
- subjects with treatment-emergent diarrhea (Compound (1) 300 mg bid): 6.8%
- severe events considered possibly related to trial medication (Compound (1) 600 mg bid): blood creatine phosphokinase increased and diarrhea
- subjects with nausea (Compound (1) 600 mg bid): 4.1%
- subjects with treatment-emergent diarrhea (Compound (1) 600 mg bid): 27.0%
- treatment-emergent serious adverse event (SAE) (Compound (1) 600 mg bid, one subject, doubtfully related according to the investigator): an SAE of moderate increased alanine aminotransferase; also recorded: a moderate treatment-emergent AE (TEAE) of increased alanine aminotransferase
- overall safety and tolerability (clinical study, 300 or 600 mg bid): generally safe and well tolerated
